Earlier results on four compounds are cited in patent US20260042735A1, “BENZYLTRYPTAMINE COMPOUNDS” (priority 2021, published 2026).

The term Ki denotes a measure of affinity in units of concentration, obtained from inhibition or displacement.

Molecules are shown by their SMILES.

For one data set, the system named is patients. Conditions: cited from earlier work.
The target of the next data set is 5-HT1D (Homo sapiens (Human), UniProt P28221). Particulars: cited from earlier work.
A further data set deals with 5-HT1B (Homo sapiens (Human), UniProt P28222). Conditions: cited from earlier work.
The target in another data set is 5-HT3 (Homo sapiens (Human), UniProt P46098). Conditions: read-out: Ki 5-HT3; cited from earlier work.
Another data set addresses 5-HT6 (Homo sapiens (Human), UniProt P50406). Particulars: cited from earlier work.
The next data set has as its target 5-HT7 (Homo sapiens (Human), UniProt P34969). Particulars: cited from earlier work.
A further data set deals with dopamine receptors. Conditions: cited from earlier work.
A further data set has as its target SERT (Homo sapiens (Human), UniProt P31645). Particulars: cited from earlier work.
For a further data set, the target named is 5-HT5 (Homo sapiens (Human), UniProt P47898). Conditions: cited from earlier work.
The target in data set [1] is T1, 5HT2B receptor (Homo sapiens, UniProt P41595). Conditions: cited from earlier work.
The next data set addresses 5HT2C receptor (Homo sapiens, UniProt P28335). Particulars: cited from earlier work.
Data set [2] deals with T1, 5HT2B receptor. Particulars: cited from earlier work. The source holds these as a separate data set.
Another data set deals with mouse OCD model. Particulars: cited from earlier work.
The next data set concerns the target human 5-HT2A receptor (Homo sapiens (Human), UniProt P28223). Particulars: cited from earlier work.
In a further data set the test system is mouse head twitch. Particulars: much lower potency relative to psilocin; cited from earlier work.
The test system of data set [3] is participants with tobacco addiction. Particulars: cited from earlier work.
In a further data set the test system is cancer patients. Conditions: high-dose, 6-month follow-up; cited from earlier work.
Data set [4] has as its system patients with alcohol dependence. Particulars: 10 patients with alcohol dependence; cited from earlier work.

T1 sequence (P41595 whole entry, looked up): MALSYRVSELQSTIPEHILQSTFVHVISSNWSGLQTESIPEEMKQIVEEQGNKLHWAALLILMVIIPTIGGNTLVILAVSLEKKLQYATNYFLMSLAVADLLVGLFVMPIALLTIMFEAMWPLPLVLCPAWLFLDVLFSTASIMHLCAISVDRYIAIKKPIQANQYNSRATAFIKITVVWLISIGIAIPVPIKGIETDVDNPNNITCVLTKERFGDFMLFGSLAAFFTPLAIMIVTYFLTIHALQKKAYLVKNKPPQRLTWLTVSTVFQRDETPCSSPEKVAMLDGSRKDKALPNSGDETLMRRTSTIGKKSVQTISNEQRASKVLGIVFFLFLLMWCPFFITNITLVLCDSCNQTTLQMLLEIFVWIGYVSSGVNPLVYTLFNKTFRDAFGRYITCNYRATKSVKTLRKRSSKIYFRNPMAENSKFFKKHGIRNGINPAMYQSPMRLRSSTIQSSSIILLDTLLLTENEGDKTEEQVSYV
5HT2C receptor, sequence (P28335 33-458 limits assumed): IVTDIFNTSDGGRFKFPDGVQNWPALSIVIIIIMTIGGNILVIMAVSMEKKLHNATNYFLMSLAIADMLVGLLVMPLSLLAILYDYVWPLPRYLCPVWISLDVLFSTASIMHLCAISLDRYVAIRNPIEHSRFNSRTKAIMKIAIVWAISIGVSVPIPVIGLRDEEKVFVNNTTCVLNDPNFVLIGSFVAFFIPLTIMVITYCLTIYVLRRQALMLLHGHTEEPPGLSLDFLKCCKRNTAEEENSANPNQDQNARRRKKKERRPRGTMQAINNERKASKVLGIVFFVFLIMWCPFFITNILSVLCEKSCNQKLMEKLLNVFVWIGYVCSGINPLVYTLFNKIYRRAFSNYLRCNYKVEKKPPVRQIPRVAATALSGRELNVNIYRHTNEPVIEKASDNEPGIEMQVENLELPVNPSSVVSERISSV
5-HT7, sequence (P34969 whole entry, looked up, species assumed): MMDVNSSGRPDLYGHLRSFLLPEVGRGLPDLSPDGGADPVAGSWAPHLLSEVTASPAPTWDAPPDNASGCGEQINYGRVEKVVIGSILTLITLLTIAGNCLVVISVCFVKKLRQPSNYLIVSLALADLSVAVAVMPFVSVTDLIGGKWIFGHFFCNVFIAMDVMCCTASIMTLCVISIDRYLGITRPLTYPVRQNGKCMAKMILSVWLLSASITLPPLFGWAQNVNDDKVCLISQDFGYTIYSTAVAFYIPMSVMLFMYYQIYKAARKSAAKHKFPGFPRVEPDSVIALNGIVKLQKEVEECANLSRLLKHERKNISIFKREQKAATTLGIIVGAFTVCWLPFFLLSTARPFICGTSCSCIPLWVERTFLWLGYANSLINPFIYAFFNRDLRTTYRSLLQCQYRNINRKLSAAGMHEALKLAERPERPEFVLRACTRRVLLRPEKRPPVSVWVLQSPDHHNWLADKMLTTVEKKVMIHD
5-HT1D, sequence (P28221 whole entry, looked up, species assumed): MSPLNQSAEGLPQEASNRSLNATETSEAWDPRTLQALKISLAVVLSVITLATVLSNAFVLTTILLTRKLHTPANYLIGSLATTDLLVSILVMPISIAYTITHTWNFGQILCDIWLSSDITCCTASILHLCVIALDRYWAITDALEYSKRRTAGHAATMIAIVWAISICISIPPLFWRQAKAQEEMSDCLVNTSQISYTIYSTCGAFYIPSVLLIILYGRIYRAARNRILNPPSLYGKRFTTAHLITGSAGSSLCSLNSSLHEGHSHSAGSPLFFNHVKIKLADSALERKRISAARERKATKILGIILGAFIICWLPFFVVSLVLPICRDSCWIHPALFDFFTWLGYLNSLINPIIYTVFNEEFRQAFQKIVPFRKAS
5-HT5, sequence (P47898 whole entry, looked up, species assumed): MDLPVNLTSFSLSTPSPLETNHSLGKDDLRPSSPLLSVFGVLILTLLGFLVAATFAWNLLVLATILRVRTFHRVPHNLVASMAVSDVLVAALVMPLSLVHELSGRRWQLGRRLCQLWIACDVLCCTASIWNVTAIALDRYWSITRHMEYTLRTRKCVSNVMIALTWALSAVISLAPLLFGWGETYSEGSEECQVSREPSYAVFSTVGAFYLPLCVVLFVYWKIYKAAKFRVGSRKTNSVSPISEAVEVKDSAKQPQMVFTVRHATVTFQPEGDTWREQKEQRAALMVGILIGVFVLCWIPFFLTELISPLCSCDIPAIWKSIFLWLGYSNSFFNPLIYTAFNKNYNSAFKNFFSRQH
5-HT3, sequence (P46098 whole entry, looked up, species assumed): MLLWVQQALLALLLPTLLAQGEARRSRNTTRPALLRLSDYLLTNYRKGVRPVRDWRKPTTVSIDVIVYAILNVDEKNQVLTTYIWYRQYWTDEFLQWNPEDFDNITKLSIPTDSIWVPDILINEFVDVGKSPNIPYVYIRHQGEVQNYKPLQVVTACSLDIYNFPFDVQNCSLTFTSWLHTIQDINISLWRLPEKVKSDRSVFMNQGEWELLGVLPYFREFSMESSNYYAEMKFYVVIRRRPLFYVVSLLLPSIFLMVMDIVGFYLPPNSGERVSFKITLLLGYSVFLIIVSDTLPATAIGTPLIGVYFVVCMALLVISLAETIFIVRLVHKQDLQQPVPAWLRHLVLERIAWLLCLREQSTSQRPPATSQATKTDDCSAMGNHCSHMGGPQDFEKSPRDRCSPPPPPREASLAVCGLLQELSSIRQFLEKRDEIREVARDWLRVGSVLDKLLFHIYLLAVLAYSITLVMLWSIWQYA
5-HT6, sequence (P50406 whole entry, looked up, species assumed): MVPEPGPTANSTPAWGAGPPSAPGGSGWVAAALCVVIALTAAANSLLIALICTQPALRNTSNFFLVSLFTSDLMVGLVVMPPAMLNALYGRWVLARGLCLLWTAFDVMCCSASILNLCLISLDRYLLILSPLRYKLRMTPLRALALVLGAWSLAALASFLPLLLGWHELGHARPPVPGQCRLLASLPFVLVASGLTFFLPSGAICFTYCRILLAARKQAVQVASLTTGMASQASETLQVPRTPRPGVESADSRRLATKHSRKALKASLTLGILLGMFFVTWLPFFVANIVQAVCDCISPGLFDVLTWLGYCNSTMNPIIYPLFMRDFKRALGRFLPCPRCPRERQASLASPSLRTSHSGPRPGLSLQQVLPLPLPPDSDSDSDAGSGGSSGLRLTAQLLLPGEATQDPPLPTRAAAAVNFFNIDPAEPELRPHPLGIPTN
5-HT1B, sequence (P28222 whole entry, looked up, species assumed): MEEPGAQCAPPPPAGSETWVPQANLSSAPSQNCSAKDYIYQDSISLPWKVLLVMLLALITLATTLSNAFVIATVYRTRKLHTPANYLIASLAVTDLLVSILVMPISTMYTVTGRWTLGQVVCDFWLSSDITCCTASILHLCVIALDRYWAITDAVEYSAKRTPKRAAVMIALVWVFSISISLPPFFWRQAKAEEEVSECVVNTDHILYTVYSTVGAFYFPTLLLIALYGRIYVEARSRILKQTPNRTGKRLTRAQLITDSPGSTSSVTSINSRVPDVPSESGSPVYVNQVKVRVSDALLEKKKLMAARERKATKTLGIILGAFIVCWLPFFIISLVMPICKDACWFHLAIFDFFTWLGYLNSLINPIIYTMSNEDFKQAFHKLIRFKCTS

Consider `C[C@H]1CNCCc2ccc(Cl)cc21` [Locaserin], for which the “Risk of cardiac valvulopathy” value in the data set on patients was “no increased risk of cardiac valvulopathy”.
Consider `CN(C)CCc1c[nH]c2cccc(O)c12` [Psilocin, psilocin], for which the Ki on 5-HT1D was 36 nM; at 5-HT1B it was 219 nM; on 5-HT3, > 10000 nM; on 5-HT6 it was 57 nM; on 5-HT7, 3.5 nM; on SERT, 3800 nM. Moreover, the Ki on 5-HT5 is 84 nM. Further, the “Effect on dopamine receptors” value in the data set on dopamine receptors is “no significant effect”.
Take `CN(C)CCc1cn(C)c2cccc(O)c12` [compound 1]: at 5HT2B receptor [1], the “Antagonist potency at 5-HT2B receptors” value is 38 nM. Besides, the EC50 on 5HT2C receptor (phosphoinositol hydrolysis, read-out: Agonist potency at human 5-HT2C receptor) was 12 nM; at human 5-HT2A receptor (phosphoinositol hydrolysis, read-out: Agonist potency at human 5-HT2A receptor), 633 nM. Moreover, the “Functional efficacy response vs serotonin, 5-HT2C” value at 5HT2C receptor (serotonin set at 100%) is listed as “ca. 45%”. Moreover, the “Agonist activity at 5-HT2B receptors” value at 5HT2B receptor [2] was “inactive”. Moreover, the “Efficacy in mouse OCD model” value in the data set with mouse OCD model is on record as “efficacy in a mouse OCD model demonstrated”. For the same compound, the “Functional efficacy response vs serotonin, 5-HT2A” value at human 5-HT2A receptor is reported as “ca. 30%”. The “Efficacy in mouse head twitch assay” value with mouse head twitch is reported as “efficacious”.
Regarding `CN(C)CCc1c[nH]c2cccc(OP(=O)(O)O)c12` [psilocybin], the Participants abstinent in [3] (2.5 years after the target quit date) is given as 75%. Further, the “Participants with biologically verified 7-day point-prevalence abstinence” value in data set [3] (6-month follow up) is “eighty”. Besides, in [3] (12-month follow-up), the “Participants biologically verified as abstinent” value was 67%. The “Participants continuing to show clinically significant decreases in depressed mood and anxiety” value with cancer patients is “about 80%”. Moreover, the “Alcohol use post administration” value in data set [4] was “significant decrease in alcohol use”.
